# According to patent publication US10059713B2 (Takeda Pharmaceutical Company Limited, priority 2014, dated 2018):
# Biological target: human GPR43 (Homo sapiens (Human), UniProt O15552)
# Test: Ca-Flux functional assay: determination of agonist/positive allosteric modulator (PAM) activity
# Assay type: cell-based
# Settings: CHO-K1 Gα16 cells stably expressing human GPR43; compound added with EC20 sodium acetate; intracellular Ca2+ by FLIPR; does not distinguish agonist from PAM
# Outline: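 CHO-K1 Gα16 cells stably expressing human GPR43, loaded with Calcium 5 dye 1 h; compounds (10-point half-log from 10 μM) added with sodium acetate at EC20. FLIPR calcium signal gave EC50, two wells per point; agonists and PAMs not distinguished.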
# Chain of human GPR43 (O15552 whole entry): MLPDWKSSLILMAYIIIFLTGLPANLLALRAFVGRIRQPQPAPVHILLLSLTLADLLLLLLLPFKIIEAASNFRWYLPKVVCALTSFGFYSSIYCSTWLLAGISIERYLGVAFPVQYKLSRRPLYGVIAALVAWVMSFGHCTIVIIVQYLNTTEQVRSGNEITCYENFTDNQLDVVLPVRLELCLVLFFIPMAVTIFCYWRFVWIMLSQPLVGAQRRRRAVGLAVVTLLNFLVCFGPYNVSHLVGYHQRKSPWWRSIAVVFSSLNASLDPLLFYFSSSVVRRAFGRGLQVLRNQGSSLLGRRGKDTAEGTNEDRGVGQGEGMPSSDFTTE
row,EC50 [nM],Compound
1,53,"Cc1nc(OC2CCCOC2(C)C)c2[nH]c(N)c(S(=O)(=O)c3ccccc3F)c2n1 (centres unmarked) [Example 296, 4-[(2,2-dimethyloxan-3-yl)oxy]-7-(2-fluorobenzenesulfonyl)-2-methyl-5H-pyrrolo[3,2-d]pyrimidin-6-amine]"
2,2,"Cc1nc(N2CCO[C@@H](C(F)(F)F)C2)c2[nH]c(N)c(S(=O)(=O)c3ccc(Cl)cc3F)c2n1 [Example 297, 7-(4-chloro-2-fluorobenzenesulfonyl)-2-methyl-4-[(2R)-2-(trifluoromethyl)morpholin-4-yl]-5H-pyrrolo[3,2-d]pyrimidin-6-amine]"
3,5,"CNc1nc(N2CCOC(C)C2)c2[nH]c(N)c(S(=O)(=O)c3ccccc3F)c2n1 (centres unmarked) [Example 298, 7-(2-fluorobenzenesulfonyl)-N2-methyl-4-(2-methylmorpholin-4-yl)-5H-pyrrolo[3,2-d]pyrimidine-2,6-diamine]"
4,1,"Cc1nc(N2CCO[C@@H](CF)C2)c2[nH]c(N)c(S(=O)(=O)c3ccccc3F)c2n1 [Example 299, 7-(2-fluorobenzenesulfonyl)-4-[(2R)-2-(fluoromethyl)morpholin-4-yl]-2-methyl-5H-pyrrolo[3,2-d]pyrimidin-6-amine]"
5,9,"Cc1nc(Nc2ccc(Cl)cc2)c2[nH]c(N)c(S(=O)(=O)c3ccccc3F)c2n1 [Example 300, N4-(4-chlorophenyl)-7-(2-fluorobenzenesulfonyl)-2-methyl-5H-pyrrolo[3,2-d]pyrimidine-4,6-diamine]"
6,14,"CSc1nc(N2CCOC(C(F)(F)F)C2)c2[nH]c(N)c(S(=O)(=O)c3ccccc3F)c2n1 (centres unmarked) [Example 301, 7-(2-fluorobenzenesulfonyl)-2-(methylsulfanyl)-4-[2-(trifluoromethyl)morpholin-4-yl]-5H-pyrrolo[3,2-d]pyrimidin-6-amine]"
7,2,"Nc1[nH]c2c(N3CCOC(C(F)(F)F)C3)ncnc2c1S(=O)(=O)c1ccccc1F (centres unmarked) [Example 302, 7-(2-fluorobenzenesulfonyl)-4-[2-(trifluoromethyl)morpholin-4-yl]-5H-pyrrolo[3,2-d]pyrimidin-6-amine]"
8,3,"Cc1nc(N2CCOC(C)(C(F)(F)F)C2)c2[nH]c(N)c(S(=O)(=O)c3ccccc3F)c2n1 (centres unmarked) [Example 303, 7-(2-fluorobenzenesulfonyl)-2-methyl-4-[2-methyl-2-(trifluoromethyl)morpholin-4-yl]-5H-pyrrolo[3,2-d]pyrimidin-6-amine]"
